Data published in ChEMBL document CHEMBL3132769, “Fragment growing to retain or alter the selectivity of anchored kinase hinge-binding fragments” (Medchemcomm, 2014).

Assays:
[1] = target: Insulin-like growth factor 1 receptor (Homo sapiens) (UniProt P08069); experiment: Inhibition of human IGF1R catalytic domain expressed in baculovirus assessed as substrate phosphorylation using fluorescence-labelled peptides as substrate at 0.2 uM after 90 mins by microfluidic peptide phosphorylation assay
[2] = target: T1, Serine/threonine-protein kinase Chk1 (Homo sapiens) (UniProt O14757); experiment: Inhibition of human full length CHK1 expressed in baculovirus assessed as substrate phosphorylation using fluorescence-labelled peptides as substrate at 0.2 uM after 90 mins by microfluidic peptide phosphorylation assay
T1 sequence (whole entry): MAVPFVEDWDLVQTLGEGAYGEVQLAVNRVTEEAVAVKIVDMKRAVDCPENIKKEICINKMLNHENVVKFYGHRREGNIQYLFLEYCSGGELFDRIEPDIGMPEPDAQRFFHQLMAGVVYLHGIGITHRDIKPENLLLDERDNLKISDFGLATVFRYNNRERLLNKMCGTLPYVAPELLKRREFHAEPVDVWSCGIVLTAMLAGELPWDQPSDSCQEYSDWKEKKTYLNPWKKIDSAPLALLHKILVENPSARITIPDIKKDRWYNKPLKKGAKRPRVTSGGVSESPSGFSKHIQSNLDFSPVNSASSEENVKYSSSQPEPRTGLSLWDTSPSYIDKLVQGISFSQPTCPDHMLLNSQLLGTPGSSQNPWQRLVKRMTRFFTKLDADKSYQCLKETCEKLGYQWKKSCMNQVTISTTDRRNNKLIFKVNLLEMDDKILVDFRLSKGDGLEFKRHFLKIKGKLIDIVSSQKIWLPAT

[3] = tested on: Tyrosine-protein kinase ABL1 (Homo sapiens), P00519 [T315I]; experiment: Inhibition of human truncated ABL T315I mutant expressed in baculovirus assessed as substrate phosphorylation using fluorescence-labelled peptides as substrate at 9 uM after 90 mins by microfluidic peptide phosphorylation assay
[4] = target: Mitogen-activated protein kinase 14 (Homo sapiens) (UniProt Q16539); experiment: Inhibition of human truncated p38 alpha expressed in Escherichia coli cell assessed as substrate phosphorylation using fluorescence-labelled peptides as substrate at 9 uM after 90 mins by microfluidic peptide phosphorylation assay
[5] = target: Tyrosine-protein kinase Fyn (Homo sapiens) (UniProt P06241); experiment: Inhibition of human full length FYN expressed in baculovirus assessed as substrate phosphorylation using fluorescence-labelled peptides as substrate at 2 uM after 90 mins by microfluidic peptide phosphorylation assay
[6] = target: Insulin receptor (Homo sapiens) (UniProt P06213); details: 0.1 uM
Description: Inhibition of human INSR catalytic domain expressed in baculovirus assessed as substrate phosphorylation using fluorescence-labelled peptides as substrate at 0.1 uM after 90 mins by microfluidic peptide phosphorylation assay

[7] = target: Mitogen-activated protein kinase 14 (Homo sapiens) (UniProt Q16539); experiment: Inhibition of human truncated p38 alpha expressed in Escherichia coli cell assessed as substrate phosphorylation using fluorescence-labelled peptides as substrate at 0.1 uM after 90 mins by microfluidic peptide phosphorylation assay
[8] = target: Dual specificity tyrosine-phosphorylation-regulated kinase 1A (Rattus norvegicus) (UniProt Q63470); experiment: Inhibition of rat full length DYRK1a expressed in Escherichia coli cell assessed as substrate phosphorylation using fluorescence-labelled peptides as substrate at 95 uM after 90 mins by microfluidic peptide phosphorylation assay
[9] = target: Tyrosine-protein kinase Lyn (Homo sapiens) (UniProt P07948); experiment: Inhibition of human full length LYN expressed in baculovirus assessed as substrate phosphorylation using fluorescence-labelled peptides as substrate at 95 uM after 90 mins by microfluidic peptide phosphorylation assay
[10] = target: Tyrosine-protein kinase Fer (Homo sapiens) (UniProt P16591); experiment: Inhibition of human FER catalytic domain expressed in baculovirus assessed as substrate phosphorylation using fluorescence-labelled peptides as substrate at 95 uM after 90 mins by microfluidic peptide phosphorylation assay
[11] = species: Homo sapiens; experiment: Inhibition of human P70S6K catalytic domain expressed in baculovirus assessed as substrate phosphorylation using fluorescence-labelled peptides as substrate at 0.06 uM after 90 mins by microfluidic peptide phosphorylation assay
[12] = target: Mitogen-activated protein kinase 1 (Homo sapiens) (UniProt P28482); experiment: Inhibition of human full length ERK2 expressed in Escherichia coli cell assessed as substrate phosphorylation using fluorescence-labelled peptides as substrate at 8 uM after 90 mins by microfluidic peptide phosphorylation assay
[13] = tested on: T2, Receptor-type tyrosine-protein kinase FLT3 (Homo sapiens), P36888 [D835Y]; experiment: Inhibition of human FLT3 D835Y mutant catalytic domain expressed in baculovirus assessed as substrate phosphorylation using fluorescence-labelled peptides as substrate at 1000 uM after 90 mins by microfluidic peptide phosphorylation assay
T2 sequence (whole entry): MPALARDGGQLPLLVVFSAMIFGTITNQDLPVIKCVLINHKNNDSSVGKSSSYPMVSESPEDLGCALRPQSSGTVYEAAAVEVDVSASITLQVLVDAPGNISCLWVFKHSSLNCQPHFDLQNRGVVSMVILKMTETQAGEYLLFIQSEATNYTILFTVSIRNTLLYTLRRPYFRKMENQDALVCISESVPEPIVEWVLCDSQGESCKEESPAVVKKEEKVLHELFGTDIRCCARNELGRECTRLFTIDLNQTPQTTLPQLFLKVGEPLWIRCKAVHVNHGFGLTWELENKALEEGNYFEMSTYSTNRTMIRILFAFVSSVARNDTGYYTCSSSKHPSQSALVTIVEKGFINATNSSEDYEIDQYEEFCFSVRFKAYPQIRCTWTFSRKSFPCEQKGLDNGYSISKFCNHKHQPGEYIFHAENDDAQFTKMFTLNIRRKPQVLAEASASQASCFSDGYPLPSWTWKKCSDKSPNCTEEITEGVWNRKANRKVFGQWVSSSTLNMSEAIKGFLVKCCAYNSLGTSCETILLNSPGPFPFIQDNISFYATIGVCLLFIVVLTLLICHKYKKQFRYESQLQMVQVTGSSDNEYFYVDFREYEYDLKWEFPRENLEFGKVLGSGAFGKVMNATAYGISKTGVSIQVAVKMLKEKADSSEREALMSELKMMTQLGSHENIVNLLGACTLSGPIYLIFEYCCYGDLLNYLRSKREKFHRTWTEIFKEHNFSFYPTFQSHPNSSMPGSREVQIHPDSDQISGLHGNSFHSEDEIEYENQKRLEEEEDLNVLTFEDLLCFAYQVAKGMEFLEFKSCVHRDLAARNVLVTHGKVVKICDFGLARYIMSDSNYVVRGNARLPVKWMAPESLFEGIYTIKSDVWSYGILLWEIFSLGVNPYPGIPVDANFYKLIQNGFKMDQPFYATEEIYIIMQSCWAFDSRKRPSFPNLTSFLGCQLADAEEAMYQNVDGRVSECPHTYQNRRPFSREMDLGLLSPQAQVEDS

Sequence of Mitogen-activated protein kinase 14 (Homo sapiens) (Q16539 whole entry, the tested form may be a part): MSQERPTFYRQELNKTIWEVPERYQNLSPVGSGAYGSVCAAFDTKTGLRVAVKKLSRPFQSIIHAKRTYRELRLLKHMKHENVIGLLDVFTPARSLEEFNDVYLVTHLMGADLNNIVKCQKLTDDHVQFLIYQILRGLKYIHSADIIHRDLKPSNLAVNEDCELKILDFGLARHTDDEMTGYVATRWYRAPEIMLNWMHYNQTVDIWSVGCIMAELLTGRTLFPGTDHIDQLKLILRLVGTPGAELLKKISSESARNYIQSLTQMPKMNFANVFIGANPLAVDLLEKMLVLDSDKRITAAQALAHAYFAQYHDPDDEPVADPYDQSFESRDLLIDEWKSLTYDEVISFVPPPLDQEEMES
Sequence of Tyrosine-protein kinase Fer (Homo sapiens) (P16591 whole entry, looked up, the tested form may be a part): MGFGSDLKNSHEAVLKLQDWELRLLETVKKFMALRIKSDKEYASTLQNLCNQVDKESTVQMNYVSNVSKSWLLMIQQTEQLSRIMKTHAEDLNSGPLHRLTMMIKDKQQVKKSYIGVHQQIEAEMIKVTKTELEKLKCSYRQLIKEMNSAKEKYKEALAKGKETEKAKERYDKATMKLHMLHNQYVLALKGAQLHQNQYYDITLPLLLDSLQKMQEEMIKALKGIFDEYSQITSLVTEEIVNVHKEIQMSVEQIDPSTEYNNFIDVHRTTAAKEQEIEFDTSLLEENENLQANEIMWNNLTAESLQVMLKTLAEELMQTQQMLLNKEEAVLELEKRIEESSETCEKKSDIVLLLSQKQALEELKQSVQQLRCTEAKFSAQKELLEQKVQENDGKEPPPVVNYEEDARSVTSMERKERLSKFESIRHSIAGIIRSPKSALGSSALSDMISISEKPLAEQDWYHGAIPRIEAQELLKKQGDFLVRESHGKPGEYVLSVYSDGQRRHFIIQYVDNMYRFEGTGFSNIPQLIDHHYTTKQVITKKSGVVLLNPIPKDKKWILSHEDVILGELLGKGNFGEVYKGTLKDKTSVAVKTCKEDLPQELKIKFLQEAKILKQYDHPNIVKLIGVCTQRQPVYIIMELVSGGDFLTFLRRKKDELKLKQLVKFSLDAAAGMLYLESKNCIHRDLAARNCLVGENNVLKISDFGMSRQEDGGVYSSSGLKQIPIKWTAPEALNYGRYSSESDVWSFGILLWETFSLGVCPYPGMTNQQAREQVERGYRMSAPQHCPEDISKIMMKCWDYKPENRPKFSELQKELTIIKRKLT
Sequence of Tyrosine-protein kinase Fyn (Homo sapiens) (P06241 2-537 limits assumed): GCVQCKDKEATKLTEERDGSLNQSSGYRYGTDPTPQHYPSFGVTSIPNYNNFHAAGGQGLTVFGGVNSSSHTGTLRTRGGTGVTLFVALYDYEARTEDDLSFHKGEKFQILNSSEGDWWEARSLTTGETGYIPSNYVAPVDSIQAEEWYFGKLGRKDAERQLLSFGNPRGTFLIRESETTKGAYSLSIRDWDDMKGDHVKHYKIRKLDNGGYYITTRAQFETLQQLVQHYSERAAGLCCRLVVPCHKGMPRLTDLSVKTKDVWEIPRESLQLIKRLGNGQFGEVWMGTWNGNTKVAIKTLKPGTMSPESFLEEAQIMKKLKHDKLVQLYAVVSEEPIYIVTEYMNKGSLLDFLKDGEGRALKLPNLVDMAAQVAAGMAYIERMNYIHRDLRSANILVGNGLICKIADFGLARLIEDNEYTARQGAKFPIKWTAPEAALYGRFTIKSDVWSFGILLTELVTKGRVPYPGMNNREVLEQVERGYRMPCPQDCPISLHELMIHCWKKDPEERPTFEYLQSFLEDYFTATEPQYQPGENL
Sequence of Tyrosine-protein kinase Lyn (Homo sapiens) (P07948 2-512 limits assumed): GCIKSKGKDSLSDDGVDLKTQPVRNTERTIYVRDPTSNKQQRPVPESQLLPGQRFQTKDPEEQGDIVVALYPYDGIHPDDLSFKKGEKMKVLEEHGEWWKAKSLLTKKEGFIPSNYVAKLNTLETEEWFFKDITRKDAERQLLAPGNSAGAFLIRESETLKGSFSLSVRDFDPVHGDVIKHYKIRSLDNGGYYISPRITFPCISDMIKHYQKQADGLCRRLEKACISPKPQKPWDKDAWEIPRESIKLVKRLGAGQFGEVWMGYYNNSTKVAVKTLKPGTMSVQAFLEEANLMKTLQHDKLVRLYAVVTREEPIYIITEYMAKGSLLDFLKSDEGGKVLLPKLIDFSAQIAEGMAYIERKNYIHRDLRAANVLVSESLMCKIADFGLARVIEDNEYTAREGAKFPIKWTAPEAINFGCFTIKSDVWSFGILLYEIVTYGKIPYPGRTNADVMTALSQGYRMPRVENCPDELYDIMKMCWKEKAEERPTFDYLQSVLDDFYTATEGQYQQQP
Sequence of Mitogen-activated protein kinase 1 (Homo sapiens) (P28482 whole entry, the tested form may be a part): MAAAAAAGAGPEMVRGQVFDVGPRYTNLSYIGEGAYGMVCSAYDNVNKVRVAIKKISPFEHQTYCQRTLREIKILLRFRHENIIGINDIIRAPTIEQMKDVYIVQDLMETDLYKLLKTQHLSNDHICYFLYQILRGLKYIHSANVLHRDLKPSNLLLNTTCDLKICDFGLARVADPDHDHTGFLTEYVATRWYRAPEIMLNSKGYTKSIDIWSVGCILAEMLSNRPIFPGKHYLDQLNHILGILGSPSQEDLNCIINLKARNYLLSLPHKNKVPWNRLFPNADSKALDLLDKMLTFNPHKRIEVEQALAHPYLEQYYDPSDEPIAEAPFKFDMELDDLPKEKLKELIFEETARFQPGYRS

Q: What does the source list for Clc1ccc(C2(c3ccc(-c4ncnc5[nH]cnc45)cc3)CCNCC2)cc1?
A: inhibition [1]: 5%; inhibition [2]: 46%

Q: Which inhibition [3] does the source give for NCC1CN(c2ncnc3[nH]c4cnccc4c23)CCO1 (stereo not drawn) here?
A: 10%

Q: What about the inhibition [4] of the same molecule?
A: 2.5%

Q: How did the inhibition [5] turn out when NC1CCN(c2ncnc3[nH]ccc23)CC1 was run?
A: 5%

Q: C[C@H](CN(C)C)Oc1nc(Nc2cc3cccc(Cl)c3cn2)cnc1C#N was tested. Which inhibition [6] did it give?
A: 0%

Q: And the inhibition [7]?
A: 1%

Q: How did the inhibition [8] turn out when NCCc1ccc(-c2ncnc3[nH]cnc23)cc1 was run?
A: 79%

Q: And the inhibition [9]?
A: 65.5%

Q: What about the inhibition [10] of the same molecule?
A: 28%

Q: Which inhibition [11] does the source give for NC1(Cc2ccc(Cl)cc2)CCN(c2ncnc3[nH]ccc23)CC1 here?
A: 0%

Q: NCC1CCN(c2ncnc3[nH]ccc23)CC1 was tested. Which inhibition [12] did it give?
A: 7.5%

Q: Which inhibition [13] does the source give for c1cnc2[nH]ccc2c1 here?
A: 76%
